Data: ChEMBL document CHEMBL1201862, “PubChem BioAssay data set” (2004)
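Exposure lasted 48 hours, with cells grown in 96-well plates and compounds tested at five concentrations. GI50 marks 50% less growth.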 Active and inactive are the calls of the source. No stated cut-off is given here; in the data, active = GI50 up to about 1.1 µM and inactive = higher.

Legend:
Test in all cases: inhibition of tumour cell growth, NCI panel, 48 h
[1] = system: SK-MEL-2
[2] = system: SF-268
[3] = system: UACC-62
[4] = system: K562
[5] = system: RXF 393
[6] = system: CCRF-CEM
[7] = system: SW-620
[8] = system: SK-OV-3
[9] = system: UACC-257
[10] = system: NCI-H23
[11] = system: Hs-578T
[12] = system: MDA-MB-435
[13] = system: LOX IMVI
[14] = system: IGROV-1
[15] = system: HCT-15
[16] = system: NCI-H226
[17] = system: PC-3
[18] = system: KM12
[19] = system: SK-MEL-28
[20] = system: OVCAR-4
[21] = system: MCF7
[22] = system: HT-29
[23] = system: U-251
[24] = system: OVCAR-5
[25] = system: COLO 205
[26] = system: MDA-N
[27] = system: HL-60
[28] = system: TK-10
[29] = system: T47D
[30] = system: M14
[31] = system: SN12C
[32] = system: ACHN
[33] = system: CAKI-1
[34] = system: HCT-116
[35] = system: A549
[36] = system: SF-539
[37] = system: DU-145
[38] = system: A498
[39] = system: SNB-75
[40] = system: MOLT-4
[41] = system: NCI-H460
[42] = system: OVCAR-8
[43] = system: NCI/ADR-RES
[44] = system: SK-MEL-5
[45] = system: UO-31
[46] = system: HOP-92
[47] = system: 786-0
[48] = system: MDA-MB-231
[49] = system: Malme-3M
[50] = system: EKVX
[51] = system: BT-549
[52] = system: SNB-19
[53] = system: SR
[54] = system: HOP-62
[55] = system: SF-295
[56] = system: OVCAR-3
[57] = system: NCI-H522
[58] = system: HCC 2998
[59] = system: RPMI-8226

For `COc1ccccc1N1CCN(CCCN2C(C(=O)c3ccccc3)=C(O)c3c(C)cc(C)nc3S2(=O)=O)CC1`, the GI50 [1] was > 100 µM (inactive), the GI50 [2] was 42.5 µM (inactive) and the GI50 [3] was > 100 µM (inactive). For the same compound, the GI50 [4] was 56.5 µM (inactive), the GI50 [5] was 5.28 µM (inactive) and the GI50 [6] was 52.5 µM (inactive). For the same compound, the GI50 [7] was 89.7 µM (inactive), the GI50 [8] was 85.9 µM (inactive) and the GI50 [9] was 74.1 µM (inactive). The GI50 [10] was > 100 µM (inactive), the GI50 [11] was 59.3 µM (inactive) and the GI50 [12] was > 100 µM (inactive). The GI50 [13] was 13.4 µM (inactive), the GI50 [14] was 72.1 µM (inactive) and the GI50 [15] was 56.6 µM. For the same compound, the GI50 [16] was 0.867 µM (active), the GI50 [17] was > 100 µM (inactive) and the GI50 [18] was > 100 µM (inactive). For the same compound, the GI50 [19] was > 100 µM (inactive), the GI50 [20] was 73.3 µM (inactive) and the GI50 [21] was 96.4 µM (inactive). For the same compound, the GI50 [22] was 34.8 µM (inactive), the GI50 [23] was 58.6 µM (inactive) and the GI50 [24] was 92.7 µM (inactive). For the same compound, the GI50 [25] was 64 µM (inactive), the GI50 [26] was > 100 µM (inactive) and the GI50 [27] was 79.4 µM (inactive). For the same compound, the GI50 [28] was > 100 µM (inactive), the GI50 [29] was > 100 µM (inactive) and the GI50 [30] was 90.4 µM (inactive). The GI50 [31] was 63 µM (inactive), the GI50 [32] was 89.1 µM (inactive) and the GI50 [33] was 79.6 µM (inactive). For the same compound, the GI50 [34] was 61.2 µM (inactive), the GI50 [35] was 47.2 µM (inactive) and the GI50 [36] was > 100 µM (inactive). The GI50 [37] was > 100 µM (inactive), the GI50 [38] was > 100 µM (inactive) and the GI50 [39] was 5.87 µM (inactive). For the same compound, the GI50 [40] was 24.8 µM (inactive), the GI50 [41] was 52.8 µM (inactive) and the GI50 [42] was 64.1 µM (inactive). For the same compound, the GI50 [43] was 50.4 µM (inactive), the GI50 [44] was 51.9 µM (inactive) and the GI50 [45] was 27.8 µM (inactive). For the same compound, the GI50 [46] was 22.6 µM (inactive), the GI50 [47] was 39.5 µM (inactive) and the GI50 [48] was > 100 µM (inactive). For the same compound, the GI50 [49] was > 100 µM (inactive), the GI50 [50] was 37 µM (inactive) and the GI50 [51] was > 100 µM (inactive). The GI50 [52] was 48.8 µM (inactive), the GI50 [53] was 46.2 µM (inactive) and the GI50 [54] was 77.8 µM (inactive). The GI50 [55] was 35.7 µM (inactive), the GI50 [56] was 55 µM (inactive) and the GI50 [57] was 32.2 µM (inactive).

With `Cn1c(O)c(C2=Nc3ccccc3C2=O)c2ccccc21` the GI50 [1] was > 100 µM (inactive), the GI50 [2] was > 100 µM (inactive) and the GI50 [3] was > 100 µM (inactive). The GI50 [58] was > 100 µM (inactive), the GI50 [4] was > 100 µM (inactive) and the GI50 [5] was > 100 µM (inactive). For the same compound, the GI50 [6] was > 100 µM (inactive), the GI50 [7] was > 100 µM (inactive) and the GI50 [8] was > 100 µM (inactive). For the same compound, the GI50 [9] was > 100 µM (inactive), the GI50 [10] was > 100 µM (inactive) and the GI50 [11] was > 100 µM (inactive). For the same compound, the GI50 [12] was > 100 µM (inactive), the GI50 [13] was > 100 µM (inactive) and the GI50 [14] was > 100 µM (inactive). The GI50 [15] was greater than 100 µM, the GI50 [16] was > 100 µM (inactive) and the GI50 [17] was > 100 µM (inactive). For the same compound, the GI50 [18] was > 100 µM (inactive), the GI50 [19] was > 100 µM (inactive) and the GI50 [20] was > 100 µM (inactive). The GI50 [21] was > 100 µM (inactive), the GI50 [22] was > 100 µM (inactive) and the GI50 [23] was > 100 µM (inactive). For the same compound, the GI50 [24] was > 100 µM (inactive), the GI50 [25] was > 100 µM (inactive) and the GI50 [26] was > 100 µM (inactive). The GI50 [28] was > 100 µM (inactive), the GI50 [29] was > 100 µM (inactive) and the GI50 [30] was > 100 µM (inactive). For the same compound, the GI50 [31] was > 100 µM (inactive), the GI50 [32] was > 100 µM (inactive) and the GI50 [33] was > 100 µM (inactive). For the same compound, the GI50 [34] was > 100 µM (inactive), the GI50 [35] was > 100 µM (inactive) and the GI50 [37] was > 100 µM (inactive). For the same compound, the GI50 [38] was > 100 µM (inactive), the GI50 [39] was > 100 µM (inactive) and the GI50 [40] was > 100 µM (inactive). The GI50 [41] was > 100 µM (inactive), the GI50 [42] was > 100 µM (inactive) and the GI50 [43] was > 100 µM (inactive). The GI50 [44] was > 100 µM (inactive), the GI50 [45] was > 100 µM (inactive) and the GI50 [46] was > 100 µM (inactive). For the same compound, the GI50 [47] was > 100 µM (inactive), the GI50 [48] was > 100 µM (inactive) and the GI50 [49] was > 100 µM (inactive). For the same compound, the GI50 [50] was > 100 µM (inactive), the GI50 [51] was > 100 µM (inactive) and the GI50 [52] was > 100 µM (inactive). For the same compound, the GI50 [59] was > 100 µM (inactive), the GI50 [53] was > 100 µM (inactive) and the GI50 [54] was > 100 µM (inactive). For the same compound, the GI50 [55] was > 100 µM (inactive), the GI50 [56] was > 100 µM (inactive) and the GI50 [57] was > 100 µM (inactive).
